Data as given in ChEMBL document CHEMBL1201862, “PubChem BioAssay data set” (2004).
Calls of active or inactive are those of the source.

How the values were obtained:
Cytochrome P450 2C19 = Cytochrome P450 2C19 (Homo sapiens, UniProt P33261); assay: Cytochrome panel assay with activity outcomes. Panel member name: p450-cyp2c19 Compounds with AC50 equal or less than 10 uM are considered active; format: functional; settings: read-out: AC50
[1] = inhibitors of intracellular T. cruzi replication, confirmation, NIH3T3 host cells, beta-gal luminescence (AID 2044); format: functional, cell-based;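 note: intracellular parasites grown in NIH/3T3 mouse fibroblasts as host cells; luminescent beta-galactosidase reporter signal from transgenic T. cruzi replicating inside host cells; inhibitors lower the luminescence signal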
[2] = cytotoxicity toward NIH3T3 fibroblasts, dose response, counter-screen, cell-based, ATP luminescence, mouse fibroblasts (AID 2010); format: functional;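 note: cells exposed to compound for about 90 hours before reading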
Streptococcus = assay: Group A Streptococcus viability loss, dose response, counter-screen for streptokinase expression inhibitor project, luminescence, BacTiterGlo (AID 1915); format: functional, organism-based;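 note: potency for reduction of bacterial viability or growth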
Streptokinase A = molecular target: T1, Streptokinase A (Streptococcus pyogenes serotype M1, UniProt P10520); assay: S. pyogenes streptokinase expression inhibitors, potency, dose response, plasminogen activation absorbance, OD405 (AID 1914); format: functional, Streptococcus pyogenes M1 GAS;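 note: secreted streptokinase activity via plasminogen activation per viability signal from cell pellet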
T1 sequence (P10520 whole entry): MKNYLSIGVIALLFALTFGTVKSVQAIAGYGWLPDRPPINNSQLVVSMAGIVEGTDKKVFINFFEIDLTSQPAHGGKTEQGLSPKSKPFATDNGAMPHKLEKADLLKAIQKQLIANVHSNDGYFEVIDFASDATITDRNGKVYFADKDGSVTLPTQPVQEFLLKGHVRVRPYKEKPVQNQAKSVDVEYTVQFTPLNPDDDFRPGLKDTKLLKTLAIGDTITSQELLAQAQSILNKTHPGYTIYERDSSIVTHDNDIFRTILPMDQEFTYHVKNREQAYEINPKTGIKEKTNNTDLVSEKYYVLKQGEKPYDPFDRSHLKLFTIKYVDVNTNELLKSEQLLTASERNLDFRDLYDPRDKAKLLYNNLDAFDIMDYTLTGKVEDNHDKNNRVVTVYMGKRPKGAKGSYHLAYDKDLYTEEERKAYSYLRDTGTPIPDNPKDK

[3] = tested on: Streptococcus sp. 'group A'; assay: growth inhibition of control SK(-) GAS strain, dose response, counter-screen for streptokinase expression inhibitor project, luminescence, kanamycin, BacTiterGlo, confirmation (AID 1900); format: functional, organism-based
[4] = inhibitors of firefly luciferase expression or activity, dose response, H4 neuroglioma cells, luminescence (AID 1990); format: functional, cell-based
[5] = inhibitors of SNCA 5'UTR-driven reporter translation, confirmation, H4 neuroglioma cells, luminescence (AID 1988); format: functional, cell-based
[6] = Luminescence Cell-Based Dose Response HTS to Identify Inhibitors of 5'UTR Stem-Loop Driven Prion Protein mRNA Translation in H4 Neuroglioblastoma Cells. [Related pubchem assays: 1827 (Project Summary), 1813 (Primary HTS)]; format: functional
[7] = molecular target: T2, Corticotropin-releasing factor receptor 2/Corticotropin-releasing factor-binding protein (Homo sapiens, UniProt P24387+Q13324); assay: activators of CRF receptor 2 with binding protein – uHTS hits, confirmation (AID 602473); format: functional; settings: read-out: EC50_Mean
T2 sequence (Q13324 whole entry): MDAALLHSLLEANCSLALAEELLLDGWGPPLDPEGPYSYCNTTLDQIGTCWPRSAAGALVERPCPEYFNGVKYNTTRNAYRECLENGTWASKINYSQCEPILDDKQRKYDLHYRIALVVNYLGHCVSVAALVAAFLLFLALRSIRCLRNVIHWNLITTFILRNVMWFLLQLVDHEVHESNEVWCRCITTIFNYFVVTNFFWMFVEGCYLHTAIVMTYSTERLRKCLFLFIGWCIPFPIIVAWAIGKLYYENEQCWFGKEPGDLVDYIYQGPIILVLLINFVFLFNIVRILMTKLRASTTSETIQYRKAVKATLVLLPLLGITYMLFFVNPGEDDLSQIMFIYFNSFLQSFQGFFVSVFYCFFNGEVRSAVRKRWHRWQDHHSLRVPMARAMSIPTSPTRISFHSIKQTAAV
T2 sequence (P24387 whole entry): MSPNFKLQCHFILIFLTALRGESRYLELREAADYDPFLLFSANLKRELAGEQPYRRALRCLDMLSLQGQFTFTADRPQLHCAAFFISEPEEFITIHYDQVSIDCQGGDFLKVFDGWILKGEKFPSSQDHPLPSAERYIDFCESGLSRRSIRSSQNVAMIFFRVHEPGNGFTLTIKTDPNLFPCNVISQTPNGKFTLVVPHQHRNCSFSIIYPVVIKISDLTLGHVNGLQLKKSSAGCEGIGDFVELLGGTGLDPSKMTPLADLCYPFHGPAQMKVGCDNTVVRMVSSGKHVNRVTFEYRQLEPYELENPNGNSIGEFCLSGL

Sequence of Cytochrome P450 2C19 (P33261 whole entry): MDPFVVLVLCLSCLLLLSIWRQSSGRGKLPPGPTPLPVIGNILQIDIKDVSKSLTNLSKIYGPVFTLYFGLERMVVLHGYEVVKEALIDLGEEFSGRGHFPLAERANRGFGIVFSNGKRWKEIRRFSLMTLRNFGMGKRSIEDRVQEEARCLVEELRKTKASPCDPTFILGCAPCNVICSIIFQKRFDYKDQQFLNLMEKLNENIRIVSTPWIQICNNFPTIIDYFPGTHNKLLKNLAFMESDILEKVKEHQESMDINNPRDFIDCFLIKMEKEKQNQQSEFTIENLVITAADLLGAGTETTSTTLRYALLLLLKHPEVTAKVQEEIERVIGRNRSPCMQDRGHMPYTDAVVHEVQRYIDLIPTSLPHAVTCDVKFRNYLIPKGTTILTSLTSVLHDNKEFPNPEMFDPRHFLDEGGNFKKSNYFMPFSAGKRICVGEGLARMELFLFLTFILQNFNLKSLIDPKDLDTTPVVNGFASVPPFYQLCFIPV

SMILES | EC50 [1] | EC50 [2] | EC50 (Streptococcus) | EC50 (Streptokinase A) | EC50 [3] | other results
CN(C)c1ncc2nc(-c3ccccc3)c(=O)n(CCC#N)c2n1 |  |  |  |  |  | AC50 (Cytochrome P450 2C19): 39.8 µM (inconclusive)
O=C1S/C(=C\c2ccccc2)C(=O)N1CC(O)Cn1c2ccccc2c2ccccc21 (configuration not stated) | 2.64 µM (active) | 11.5 µM (active) |  |  |  | 
Cc1cc(OCCOCCN2CCCC2)ccc1C(C)C | 0.816 µM (active) | 4.6 µM (active) |  |  |  | 
COC(=O)c1ccc(OC)c(CN2CCCN(Cc3ccc(F)cc3)S2(=O)=O)c1 | 1.75 µM (active) | > 30 µM (not active) |  |  |  | 
NNC(=O)CSc1nc(-c2ccccc2)nc2c1CCCC2 |  |  | > 150 µM (not active) | > 150 µM (not active) | > 150 µM (not active) | 
Cc1cccc(N=Nc2c(C)nn(-c3ccccc3)c2N)c1C |  |  | 15.8 µM (active) | 22 µM (active) | 11.7 µM (active) | 
O=C(Nc1nnc(SCc2ccc(F)cc2)s1)c1ccc2c(c1)C(=O)N(c1ccccc1Cl)C2=O |  |  | 101 µM (active) | > 150 µM (not active) | 24.3 µM (active) | 
COc1cccc(N(C(=O)Cn2nnc(-c3cccs3)n2)C(C(=O)NC(C)C)c2ccc(C)o2)c1 (configuration not stated) |  |  |  |  |  | EC50 [4]: 16.4 µM (active); EC50 [5]: 18.8 µM (active); EC50 [6]: > 120 µM (not active)
CN1CCN(C(=O)C(=O)c2cn(CC(=O)N3CCCC3)c3ccccc23)CC1 |  |  | > 150 µM (not active) | > 150 µM (not active) | > 150 µM (not active) | 
COc1ccc(NC(=O)c2ccc([N+](=O)[O-])s2)c([N+](=O)[O-])c1 | 1.86 µM (active) | > 30 µM (not active) |  |  |  | 
Cn1nc([N+](=O)[O-])nc1Oc1ccccc1F | 0.551 µM (active) | > 60 µM (not active) |  |  |  | 
Cc1ccc(S(=O)(=O)N2CCCCC2)cc1NC(=O)Nc1ccc(Cl)cc1Cl | 1.06 µM (active) | > 60 µM (not active) |  |  |  | 
Cc1cc(C(=O)NCC23CC4CC(CC(C4)C2)C3)c(C)o1 | 2.84 µM (active) | > 60 µM (not active) |  |  |  | 
Cc1ccc(Nc2nc3nonc3[nH]c2=O)cc1Cl |  |  |  | 31.1 µM (active) |  | 
Cc1ccc(Nc2nc3nonc3nc2O)cc1Cl |  |  | 20.6 µM (active) |  | 3.04 µM (active) | 
Cc1c(C(=O)N2CCOCC2)c(S(=O)(=O)Nc2cccc(Br)c2)c(C)n1C |  |  |  |  |  | EC50 [4]: > 120 µM (not active); EC50 [5]: 15 µM (active); EC50 [6]: 32.2 µM (active)
Cc1ccc(NC(=O)CN(C)Cc2nc(O)c3cc(Br)cc(Br)c3n2)cc1 |  |  | 12.2 µM (active) | > 150 µM (not active) | 5.34 µM (active) | 
Cn1c(N)c(C(=O)COC(=O)CCc2c[nH]c3ccccc23)c(=O)n(C)c1=O |  |  | 79.6 µM (active) | > 150 µM (not active) | 24.6 µM (active) | 
CCc1nnc(NC(=O)c2sc3nc4cc(C)ccc4cc3c2N)s1 |  |  | 3.95 µM (active) |  | 6.73 µM (active) | 
CCOC(=O)C1CCCN(Cc2ccc(OCc3ccccc3)cc2)C1 (configuration not stated) | 0.108 µM (active) | > 60 µM (not active) |  |  |  | 
COc1ccc(-n2ncc3c2CC(C)(C)CC3NC(=O)c2ocnc2C)cc1 (configuration not stated) |  |  |  |  |  | EC50 [4]: > 120 µM (not active); EC50 [5]: > 120 µM (not active)
COc1cc2ccccc2cc1C(=O)Nc1ccc(NC(=O)c2cccs2)cc1 |  |  | 29.2 µM (active) | > 150 µM (not active) | 11.5 µM (active) | 
CNc1nc2nc(O)c3c(c2s1)OC(N)=C(C#N)C3c1cccc(F)c1 (configuration not stated) |  |  |  |  |  | EC50 [7]: > 53 µM (inactive)
